The values below are quoted from earlier work in patent publication US20050049255A1, “Therapeutic combinations” (Pfizer Inc, priority 2003, published 2005).

In the series the test system is dysmenorrhoea.

Turning to “1-deamino-2-D-Tyr (Oet)-4-Thr-8-Orn-oxytocin”, the “efficacy in the treatment of dysmenorrhoea” value (given intravenously, pilot study) was “effective in the treatment of dysmenorrhoea”.
On to `COc1ccc(S(=O)(=O)N2c3ccc(Cl)cc3[C@](O)(c3ccccc3Cl)[C@@H]2C(=O)N2CCC[C@H]2C(N)=O)cc1OC` [Relcovaptan], for which the “intensity of pain in women with dysmenorrhoea” value (double blind, randomised placebo controlled cross over trial, oral) is on record as “dose dependently reduced the intensity of pain”.
